US9597407B2, “Targeted antimicrobial moieties” (C3 Jian, Inc., priority 2009, dated 2017)

Test system: microorganisms
Experiment: Morphology, biofilm and growth disruption by peptides (Table 5)
Format: cell-based
Set-up: key: A: Peptide aggregates; B: Less hyphal formation; Clumps; Diffuse clumps and small polyps; F: Diffuse growth; H: Thin; I: Growth inhibition; Microcolony formation; Rippled; Small polyps; Thick; W: Halo formation on top, microlonies on bottom
Description: In certain embodiments peptides that induce alterations in phenotype or other biological activities can also be used as antimicrobial effector moieties.

PF-411 (WVAVAILLNIALQTQLT; Peptide with targeting and/or antimicrobial activity)
Organism, effect (C. jejuni): C. jejuni (D)
Organism, effect (E. coli): E. coli (C)
Organism, effect (E. faecalis): E. faecalis (D)
Organism, effect (MRSA): MRSA (D)
Organism, effect (P. aeruginosa): P. aeruginosa (A)
Organism, effect (S. epidermidis): S. epidermidis (C)
Organism, effect (S. pneumoniae): S. pneumoniae (D)

PF-139 (ALSKPAIQARTLCRRQDPP; Peptide with targeting and/or antimicrobial activity)
Organism, effect (C. jeikeium): C. jeikeium (R)
Organism, effect (M. luteus): M. luteus (C)
Organism, effect (S. epidermidis): S. epidermidis (M)

PF-C089 (MPKRHYYKLEAKALQFGLPFAYSPIQLLK; Peptide with targeting and/or antimicrobial activity)
Organism, effect (morphology, biofilm and growth disruption) (P. gingivalis): P. gingivalis (R)

TKKIELKRFVDAFVKKSYENYILERELKKLIKAINEELPTK [PF-600]
Organism, effect (morphology, biofilm and growth disruption) (E. coli): E. coli (H)
Organism, effect (morphology, biofilm and growth disruption) (M. luteus): M. luteus (C)
Organism, effect (morphology, biofilm and growth disruption) (MRSA): MRSA (M)
Organism, effect (morphology, biofilm and growth disruption) (S. epidermidis): S. epidermidis (C)
Organism, effect (morphology, biofilm and growth disruption) (S. mutans): S. mutans (S)
Organism, effect (morphology, biofilm and growth disruption) (S. pneumoniae): S. pneumoniae (R)

PF-571 (SDLLYYPNENREDSPAGVVKEVKE; Peptide with targeting and/or antimicrobial activity)
Organism, effect (morphology, biofilm and growth disruption) (B. subtilis): B. subtilis (D)

PF-455 (MARNDDDIKKIKGTLGQSPEVYGERKLPYT; Peptide with targeting and/or antimicrobial activity)
Organism, effect (morphology, biofilm and growth disruption) (S. pneumoniae): S. pneumoniae (A)

PF-410 (FALELIALCRNLFIVYFP; Peptide with targeting and/or antimicrobial activity)
Organism, effect (E. coli): E. coli (S)
Organism, effect (E. faecalis): E. faecalis (C)
Organism, effect (MRSA): MRSA (M)
Organism, effect (S. epidermidis): S. epidermidis (C)

PF-339 (KKIDILINKYMYLSK; Peptide with targeting and/or antimicrobial activity)
Organism, effect (B. subtilis): B. subtilis (C)
Organism, effect (S. epidermidis): S. epidermidis (C)

PF-624 (VFLLDSYCFVKINL; Peptide with targeting and/or antimicrobial activity)
Organism, effect (morphology, biofilm and growth disruption) (E. coli): E. coli (C)
Organism, effect (morphology, biofilm and growth disruption) (M. luteus): M. luteus (C)
Organism, effect (morphology, biofilm and growth disruption) (MRSA): MRSA (C)
Organism, effect (morphology, biofilm and growth disruption) (P. mirabilis): P. mirabilis (C)
Organism, effect (morphology, biofilm and growth disruption) (S. epidermidis): S. epidermidis (D)
Organism, effect (morphology, biofilm and growth disruption) (S. mutans): S. mutans (D)
Organism, effect (morphology, biofilm and growth disruption) (S. pneumoniae): S. pneumoniae (D)

PF-618 (KLNTLNKKDNPSLNDQDKNAVLNLLALAK; Peptide with targeting and/or antimicrobial activity)
Organism, effect (morphology, biofilm and growth disruption) (E. faecalis): E. faecalis (H)
Organism, effect (morphology, biofilm and growth disruption) (S. pneumoniae): S. pneumoniae (I)

KFQGEFTNIGQSYIVSASHMSTSLNTGK [PF-583]
Organism, effect (morphology, biofilm and growth disruption) (MRSA): MRSA (I)
Organism, effect (morphology, biofilm and growth disruption) (S. epidermidis): S. epidermidis (I)
Organism, effect (morphology, biofilm and growth disruption) (S. mutans): S. mutans (F)
Organism, effect (morphology, biofilm and growth disruption) (S. pneumoniae): S. pneumoniae (D)

PF-250 (SEDIFGRLANEKANGLEELRKIRLKQ; Peptide with targeting and/or antimicrobial activity)
Organism, effect (M. luteus): M. luteus (T)

PF-582 (NLKTIEKECPFCNNKMDIKLKD; Peptide with targeting and/or antimicrobial activity)
Organism, effect (morphology, biofilm and growth disruption) (E. faecalis): E. faecalis (A)

PF-019 (NDTNK; Peptide with targeting and/or antimicrobial activity)
Organism, effect (MRSA): MRSA (M)

PF-290 (MVHDMTNGTLIIVKH; Peptide with targeting and/or antimicrobial activity)
Organism, effect (S. epidermidis): S. epidermidis (C)

PF-630 (chain 1 IPATPIIHS; chain 2 IPATPIIHS; Peptide with targeting and/or antimicrobial activity)
Organism, effect (morphology, biofilm and growth disruption) (MRSA): MRSA (M)

DLLKSLLGQDGAKNDEIIEFIKIIMEK [PF-591]
Organism, effect (morphology, biofilm and growth disruption) (C. jejuni): C. jejuni (C)
Organism, effect (morphology, biofilm and growth disruption) (E. faecalis): E. faecalis (A)
Organism, effect (morphology, biofilm and growth disruption) (S. pneumoniae): S. pneumoniae (R)

PF-516 (ASKQASKQASKQASKQ; Peptide with targeting and/or antimicrobial activity)
Organism, effect (morphology, biofilm and growth disruption) (S. pneumoniae): S. pneumoniae (H)

EILNNNQVIKELTMKYKTQFESNLGGWTARARR [PF-580]
Organism, effect (morphology, biofilm and growth disruption) (M. luteus): M. luteus (C)
Organism, effect (morphology, biofilm and growth disruption) (MRSA): MRSA (M)
Organism, effect (morphology, biofilm and growth disruption) (S. epidermidis): S. epidermidis (M)
Organism, effect (morphology, biofilm and growth disruption) (S. pneumoniae): S. pneumoniae (C)

PF-178 (EVYSSPTNNVAITVQNN; Peptide with targeting and/or antimicrobial activity)
Organism, effect (E. coli): E. coli (C)
Organism, effect (MRSA): MRSA (M)
Organism, effect (S. epidermidis): S. epidermidis (D)
Organism, effect (S. pneumoniae): S. pneumoniae (D)

PF-157 (HTAVVWLAGVSGCVALSHCEPA; Peptide with targeting and/or antimicrobial activity)
Organism, effect (S. epidermidis): S. epidermidis (M)

PF-532 (KFIYKYKLSFIIYKILIQTLTMELNK; Peptide with targeting and/or antimicrobial activity)
Organism, effect (morphology, biofilm and growth disruption) (E. coli): E. coli (C)
Organism, effect (morphology, biofilm and growth disruption) (E. faecalis): E. faecalis (C)
Organism, effect (morphology, biofilm and growth disruption) (MRSA): MRSA (C)
Organism, effect (morphology, biofilm and growth disruption) (S. pneumoniae): S. pneumoniae (C)

PF-595 (LQNKIYELLYIKERSKLCS; Peptide with targeting and/or antimicrobial activity)
Organism, effect (morphology, biofilm and growth disruption) (C. jejuni): C. jejuni (D)
Organism, effect (morphology, biofilm and growth disruption) (E. coli): E. coli (C)
Organism, effect (morphology, biofilm and growth disruption) (E. faecalis): E. faecalis (D)
Organism, effect (morphology, biofilm and growth disruption) (MRSA): MRSA (D)
Organism, effect (morphology, biofilm and growth disruption) (S. epidermidis): S. epidermidis (C)
Organism, effect (morphology, biofilm and growth disruption) (S. pneumoniae): S. pneumoniae (R)

PF-076 (LYQYELLSKEEYLKCTLIINQRRNEQK; Peptide with targeting and/or antimicrobial activity)
Organism, effect (C. jeikeium): C. jeikeium (A)
Organism, effect (M. luteus): M. luteus (A)
Organism, effect (MRSA): MRSA (R)
Organism, effect (S. epidermidis): S. epidermidis (S)

PF-431 (VAYAAICWW; Peptide with targeting and/or antimicrobial activity)
Organism, effect (morphology, biofilm and growth disruption) (C. jejuni): C. jejuni (R)
Organism, effect (morphology, biofilm and growth disruption) (E. faecalis): E. faecalis (R)
Organism, effect (morphology, biofilm and growth disruption) (MRSA): MRSA (C)
Organism, effect (morphology, biofilm and growth disruption) (S. epidermidis): S. epidermidis (M)
Organism, effect (morphology, biofilm and growth disruption) (S. pneumoniae): S. pneumoniae (R)

PF-342 (AFSGVYKTLIVYTRRK; Peptide with targeting and/or antimicrobial activity)
Organism, effect (B. subtilis): B. subtilis (C)
Organism, effect (S. epidermidis): S. epidermidis (C)

PF-432 (FNGDSEFFLCIAF; Peptide with targeting and/or antimicrobial activity)
Organism, effect (morphology, biofilm and growth disruption) (C. jejuni): C. jejuni (D)
Organism, effect (morphology, biofilm and growth disruption) (E. coli): E. coli (R)
Organism, effect (morphology, biofilm and growth disruption) (E. faecalis): E. faecalis (D)
Organism, effect (morphology, biofilm and growth disruption) (MRSA): MRSA (M)
Organism, effect (morphology, biofilm and growth disruption) (P. aeruginosa): P. aeruginosa (A)
Organism, effect (morphology, biofilm and growth disruption) (S. epidermidis): S. epidermidis (M)
Organism, effect (morphology, biofilm and growth disruption) (S. pneumoniae): S. pneumoniae (D)

PF-310 (GVALIGTILVPLLSGLFG; Peptide with targeting and/or antimicrobial activity)
Organism, effect (S. epidermidis): S. epidermidis (C)

PF-335 (AAYPIEDWSDWYEDFFIMLSNI; Peptide with targeting and/or antimicrobial activity)
Organism, effect (B. subtilis): B. subtilis (C)
Organism, effect (S. epidermidis): S. epidermidis (C)

PF-318 (MGRHLWNPSYFVATVSENTEEQIRKYINNQKKQVK; Peptide with targeting and/or antimicrobial activity)
Organism, effect (B. subtilis): B. subtilis (C)
Organism, effect (S. epidermidis): S. epidermidis (C)

PF-634 (chain 1 MPKARPVNHNKKKSKITIKSNFTLFYMFNP; chain 2 MPKARPVNHNKKKSKITIKSNFTLFYMFNP; Peptide with targeting and/or antimicrobial activity)
Organism, effect (morphology, biofilm and growth disruption) (E. coli): E. coli (C)
Organism, effect (morphology, biofilm and growth disruption) (M. luteus): M. luteus (C)
Organism, effect (morphology, biofilm and growth disruption) (MRSA): MRSA (D)
Organism, effect (morphology, biofilm and growth disruption) (P. mirabilis): P. mirabilis (C)
Organism, effect (morphology, biofilm and growth disruption) (S. epidermidis): S. epidermidis (D)
Organism, effect (morphology, biofilm and growth disruption) (S. mutans): S. mutans (D)
Organism, effect (morphology, biofilm and growth disruption) (S. pneumoniae): S. pneumoniae (D)

PF-125 (YVVGALVILAVAGLIYSMLRKA; Peptide with targeting and/or antimicrobial activity)
Organism, effect (M. luteus): M. luteus (C)
Organism, effect (S. epidermidis): S. epidermidis (D)

PF-140 (FHRRVIRASEWALTTRSFSTPLRSAAR; Peptide with targeting and/or antimicrobial activity)
Organism, effect (C. albicans): C. albicans (B)
Organism, effect (C. jeikeium): C. jeikeium (D)
Organism, effect (C. jejuni): C. jejuni (D)
Organism, effect (M. luteus): M. luteus (R)
Organism, effect (MRSA): MRSA (M)
Organism, effect (P. aeruginosa): P. aeruginosa (A)
Organism, effect (S. epidermidis): S. epidermidis (D)
Organism, effect (S. pneumoniae): S. pneumoniae (D)

PF-296 (GAFGMPSIKTNTICGEKGKFISACDAWLSNLK; Peptide with targeting and/or antimicrobial activity)
Organism, effect (B. subtilis): B. subtilis (C)
Organism, effect (S. epidermidis): S. epidermidis (C)
